In patent US10280198B2, “Therapeutic agents for reducing parathyroid hormone levels” (KAI PHARMACEUTICALS, INC., priority 2009, dated 2019):
Read-outs that look alike come from different tables or passages of the source. Square brackets hold non-standard residues; d marks the D form. Peptide text beside a SMILES is read from it. βAla = NCCC(=O)O

Tests used:
[1] = molecular target: T1, human calcium-sensing receptor (CaSR) (Homo sapiens, UniProt P41180); test: In vitro cell assay in HEK-293 expressing the human calcium-sensing receptor (IP1 production); assay type: cell-based
T1 construct: expressed in transfected cells; host or cells: HEK 293T cells, transiently transfected (lipofectamine 2000); in some cases HEK293 cells stably transfected
T1 sequence (P41180 20-1078): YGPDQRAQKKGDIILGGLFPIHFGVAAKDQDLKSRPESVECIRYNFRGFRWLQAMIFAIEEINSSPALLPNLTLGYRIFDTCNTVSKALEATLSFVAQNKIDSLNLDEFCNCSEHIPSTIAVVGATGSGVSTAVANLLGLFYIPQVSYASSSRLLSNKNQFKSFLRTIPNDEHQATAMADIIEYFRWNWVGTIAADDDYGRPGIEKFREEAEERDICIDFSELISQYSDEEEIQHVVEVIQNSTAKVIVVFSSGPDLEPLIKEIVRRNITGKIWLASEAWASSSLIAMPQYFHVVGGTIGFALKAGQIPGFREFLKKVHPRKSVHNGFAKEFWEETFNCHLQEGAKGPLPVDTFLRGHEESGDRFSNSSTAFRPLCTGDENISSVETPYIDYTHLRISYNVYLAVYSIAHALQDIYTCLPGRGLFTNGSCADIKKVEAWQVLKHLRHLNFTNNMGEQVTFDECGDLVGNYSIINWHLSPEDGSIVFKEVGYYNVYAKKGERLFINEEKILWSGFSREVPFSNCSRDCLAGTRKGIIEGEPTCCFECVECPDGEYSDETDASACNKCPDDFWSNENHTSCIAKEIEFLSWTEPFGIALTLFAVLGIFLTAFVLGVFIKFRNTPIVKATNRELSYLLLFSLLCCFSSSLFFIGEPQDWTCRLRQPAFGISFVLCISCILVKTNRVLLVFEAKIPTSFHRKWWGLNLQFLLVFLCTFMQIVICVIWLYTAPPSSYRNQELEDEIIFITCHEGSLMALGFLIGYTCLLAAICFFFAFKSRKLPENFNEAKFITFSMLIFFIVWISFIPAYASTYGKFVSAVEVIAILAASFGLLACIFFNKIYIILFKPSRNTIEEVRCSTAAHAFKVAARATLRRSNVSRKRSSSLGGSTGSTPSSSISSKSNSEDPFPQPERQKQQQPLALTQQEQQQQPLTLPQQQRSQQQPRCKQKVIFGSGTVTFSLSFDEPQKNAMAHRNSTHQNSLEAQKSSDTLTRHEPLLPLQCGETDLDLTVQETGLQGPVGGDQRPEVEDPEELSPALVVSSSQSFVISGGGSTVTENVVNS
Method: The activity of a variety of peptides and conjugates was tested against the human CaSR. These studies were conducted by measuring IP1 production in HEK293 cells that express the human CaSR. Each peptide was tested in eight different concentrations, in duplicates, to establish a dose response curve. Curve fitting was performed using GraphPad Prism. In Table 5, and throughout the specification, residues provided in capital letters are L-amino acids, while lower case letters indicate D-amino acids. “Ac” indicates an acetyl capping group, “NH2” indicates an amide capping group, “Ac-bAla” is an acetylated beta-alanine, “GSH” indicates reduced glutathione, “GS” indicates oxidized glutathione, “PEG” refers to polyethylene glycol, “PEG2” and “PEGS” refer to polyethylene glycol moieties of 2 kDa and 5 kDa, respectively, and “Mpa” refers to mercaptopropionic acid.
The day after, these cells were transfected with human CaSR receptor using lipofectamine 2000 transfection reagent 24 hrs post transfection, cells were seeded in 384 well plates at 8,000 cells/well. […] In some cases, EC50 values were determined by measuring inositol monophosphate production in the HEK293 cells, stably transfected with the human calcium-sensing receptor (see Table 1).
Cells were incubated with compounds at various concentrations (1 mM or 300 μM as the highest and further ½ log serial dilutions) at 37° C. for 1.5 hrs before reaction termination. […] In brief, incubation with the compound was terminated by sequentially adding D2 labeled-IP1 and cryptate-labeled anti-IP1 in lysis buffer and further incubating at room temperature for 60 minutes. […] Non-transfected 293 cells were used as negative control.
IP1 concentrations were calculated from standard curves (generated with Graph Pad Prism ver. 4) using known concentrations of IP1 standards.

plasma PTH = test: In vivo PTH lowering after IV bolus in isoflurane-anesthetized normal Sprague Dawley rats; design: species or system rat; conditions: for duration of decreased PTH: 0.5 mg/kg IV bolus, FIG. 5; for duration of decreased PTH / 0.5 mg/kg IV bolus % PTH AUC of saline control: normal rats; for % PTH reduction of baseline at 1 hour post IV admin. of 0.5 mg/kg compound: isoflurane-anesthetized normal rats, 0.5 mg/kg IV
Outline: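 Peptides were given as a 0.5 mg/kg IV bolus to normal Sprague Dawley rats kept under isoflurane throughout, with saline bolus controls.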

[2] = test system: rat peritoneal mast cells; test: In vitro histamine induction in rat peritoneal mast cells; assay type: cell-based
Outline: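 Mast cells from peritoneal lavage of Sprague Dawley rats were incubated with compound at 10 μM for 15 min at 37 °C in HBSS + 25 mM HEPES pH 7.4. Supernatant histamine measured by EIA; response expressed as fold change versus pre-incubation levels.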

[3] = Table 1, IP1 in HEK293 cells expressing human CaSR, read-out: In vitro EC50
[4] = Table 5, IP1 production in HEK293 cells expressing human CaSR, eight concentrations in duplicate, read-out: EC50 in CaSR in vitro assay
[5] = 0.5 mg/kg single IV administration
[6] = Table 1, PTH at 1, 2, 3, 4 h, AUCcmpd treated/AUCsaline control*100

Molecule	EC50 [1, 4] [µM]	Histamine in vitro Fold change of non-treated at 10 uM [2] [fold]	other results
CC(=O)N[C@H](CS)C(=O)N[C@H](C)C(=O)N[C@H](CCCNC(=N)N)C(=O)N[C@H](CCCNC(=N)N)C(=O)N[C@H](CCCNC(=N)N)C(=O)N[C@H](CCCNC(=N)N)C(=O)N[C@H](CCCNC(=N)N)C(N)=O [SEQ ID NO: 8, Ac-carrrrr-NH2] (Ac-[dC][dA][dR][dR][dR][dR][dR]-NH2)	1.1	6.6	EC50 [1, 3]: 1.1 µM; duration of decreased PTH (plasma PTH): at least four hours; PTH-lowering activity in normal rats (plasma PTH; [5]): below the detection limit or essentially zero; % PTH reduction of baseline at 1 hour post IV admin. of 0.5 mg/kg compound (plasma PTH; Table 1): 0%; 0.5 mg/kg IV bolus % PTH AUC of saline control (plasma PTH; [6]): 0%
CC(=O)N[C@H](CS)C(=O)N[C@H](CCCNC(=N)N)C(=O)N[C@H](C)C(=O)N[C@H](CCCNC(=N)N)C(=O)N[C@H](CCCNC(=N)N)C(=O)N[C@H](CCCNC(=N)N)C(=O)N[C@H](CCCNC(=N)N)C(N)=O [SEQ ID NO: 9, Ac-crarrrr-NH2] (Ac-[dC][dR][dA][dR][dR][dR][dR]-NH2)	1	6.8	EC50 [1, 3]: 1 µM; % PTH reduction of baseline at 1 hour post IV admin. of 0.5 mg/kg compound (plasma PTH; Table 1): 0%; 0.5 mg/kg IV bolus % PTH AUC of saline control (plasma PTH; [6]): 7%
CC(=O)N[C@H](CS)C(=O)N[C@H](CCCNC(=N)N)C(=O)N[C@H](CCCNC(=N)N)C(=O)N[C@H](C)C(=O)N[C@H](CCCNC(=N)N)C(=O)N[C@H](CCCNC(=N)N)C(=O)N[C@H](CCCNC(=N)N)C(N)=O [SEQ ID NO: 10, Ac-crrarrr-NH2] (Ac-[dC][dR][dR][dA][dR][dR][dR]-NH2)	1.1	5.3	EC50 [1, 3]: 1.1 µM; duration of decreased PTH (plasma PTH): at least four hours; PTH-lowering activity in normal rats (plasma PTH; [5]): below the detection limit or essentially zero; % PTH reduction of baseline at 1 hour post IV admin. of 0.5 mg/kg compound (plasma PTH; Table 1): 0%; 0.5 mg/kg IV bolus % PTH AUC of saline control (plasma PTH; [6]): 0%
CC(=O)N[C@H](C)C(=O)N[C@H](CCCNC(=N)N)C(=O)N[C@H](CCCNC(=N)N)C(=O)N[C@H](CCCNC(=N)N)C(=O)N[C@H](C)C(=O)N[C@H](CCCNC(=N)N)C(N)=O [SEQ ID NO: 29, Ac-arrrar-NH2] (Ac-[dA][dR][dR][dR][dA][dR]-NH2)	> 1000	–	potency to activate the human CaSR in vitro ([1]; HEK-293 cell assay): dramatically reduced the ability of the compound to activate the CaSR; PTH-lowering activity in normal rats (plasma PTH; 9 mg/kg IV bolus, FIG. 2B): did not reduce PTH concentration
CC(=O)NCCC(=O)N[C@H](CS)C(=O)N[C@H](CCCNC(=N)N)C(=O)N[C@H](CCCNC(=N)N)C(=O)N[C@H](CCCNC(=N)N)C(=O)N[C@H](CCCNC(=N)N)C(=O)N[C@H](CCCNC(=N)N)C(=O)N[C@H](CCCNC(=N)N)C(N)=O [SEQ ID NO: 30, Ac-bAla-crrrrrr-NH2] (Ac-[βAla][dC][dR][dR][dR][dR][dR][dR]-NH2)	1	–	0.5 mg/kg IV bolus % PTH AUC of saline control (plasma PTH; Table 3, AUC 1-4 h): 0%
CC(=O)N[C@H](CCS)C(=O)N[C@H](CCCNC(=N)N)C(=O)N[C@H](CCCNC(=N)N)C(=O)N[C@H](CCCNC(=N)N)C(=O)N[C@H](CCCNC(=N)N)C(=O)N[C@H](CCCNC(=N)N)C(=O)N[C@H](CCCNC(=N)N)C(N)=O [SEQ ID NO: 32, Ac-dHcy-rrrrrr-NH2]	2	–	0.5 mg/kg IV bolus % PTH AUC of saline control (plasma PTH; Table 3, AUC 1-4 h): 21%
CC(=O)N[C@H](CSSCCC(=O)O)C(=O)N[C@H](C)C(=O)N[C@H](CCCNC(=N)N)C(=O)N[C@H](CCCNC(=N)N)C(=O)N[C@H](CCCNC(=N)N)C(=O)N[C@H](C)C(=O)N[C@H](CCCNC(=N)N)C(N)=O [SEQ ID NO: 56, Ac-c(Mpa)arrrar-NH2]	21	–	0.5 mg/kg IV bolus % PTH AUC of saline control (plasma PTH; Table 8, AUC 1-4 h): 25%
CC(=O)N[C@H](CS)C(=O)N[C@H](CCC(=O)O)C(=O)N[C@H](CCCNC(=N)N)C(=O)N[C@H](CCCNC(=N)N)C(=O)N[C@H](CCCNC(=N)N)C(=O)N[C@H](C)C(=O)N[C@H](CCCNC(=N)N)C(N)=O [SEQ ID NO: 69, Ac-cerrrar-NH2] (Ac-[dC][dE][dR][dR][dR][dA][dR]-NH2)	31	–	0.5 mg/kg IV bolus % PTH AUC of saline control (plasma PTH; Table 6, AUC 1-4 h): 103%
CC(=O)N[C@H](CS)C(=O)N[C@H](C)C(=O)N[C@H](CCCCN)C(=O)N[C@H](CCCNC(=N)N)C(=O)N[C@H](CCCNC(=N)N)C(=O)N[C@H](C)C(=O)N[C@H](CCCNC(=N)N)C(N)=O [SEQ ID NO: 72, Ac-cakrrar-NH2] (Ac-[dC][dA][dK][dR][dR][dA][dR]-NH2)	35	1.1	–
CC(=O)N[C@H](CS)C(=O)N[C@H](C)C(=O)N[C@H](CCCNC(=N)N)C(=O)N[C@H](CCCCN)C(=O)N[C@H](CCCNC(=N)N)C(=O)N[C@H](C)C(=O)N[C@H](CCCNC(=N)N)C(N)=O [SEQ ID NO: 73, Ac-carkrar-NH2] (Ac-[dC][dA][dR][dK][dR][dA][dR]-NH2)	31	1.4	–
CC(=O)N[C@H](CS)C(=O)N[C@H](C)C(=O)N[C@H](C)C(=O)N[C@H](CCCNC(=N)N)C(=O)N[C@H](CCCNC(=N)N)C(=O)N[C@H](CCCNC(=N)N)C(=O)N[C@H](CCCNC(=N)N)C(=O)N[C@H](CCCNC(=N)N)C(=O)N[C@H](CCCNC(=N)N)C(N)=O [SEQ ID NO: 76, Ac-caarrrrrr-NH2] (Ac-[dC][dA][dA][dR][dR][dR][dR][dR][dR]-NH2)	4.5	–	–
CC(=O)N[C@H](CS)C(=O)N[C@H](C)C(=O)N[C@H](CCCNC(=N)N)C(=O)N[C@H](C)C(=O)N[C@H](CCCNC(=N)N)C(=O)N[C@H](C)C(=O)N[C@H](CCCNC(=N)N)C(=O)N[C@H](C)C(=O)N[C@H](CCCNC(=N)N)C(N)=O [SEQ ID NO: 78, Ac-carararar-NH2] (Ac-[dC][dA][dR][dA][dR][dA][dR][dA][dR]-NH2)	5.3	–	–
CC(=O)N[C@H](CS)C(=O)N[C@H](C)C(=O)N[C@H](CCCNC(=N)N)C(=O)N[C@H](CCCNC(=N)N)C(=O)N[C@H](CCCNC(=N)N)C(=O)N[C@H](C)C(=O)N[C@H](CCCNC(=N)N)C(=O)N[C@H](C)C(=O)N[C@H](CCCNC(=N)N)C(N)=O [SEQ ID NO: 79, Ac-carrrarar-NH2] (Ac-[dC][dA][dR][dR][dR][dA][dR][dA][dR]-NH2)	13	–	–
N=C(N)NCCC[C@@H](NC(=O)[C@@H](CCCNC(=N)N)NC(=O)[C@@H](CCCNC(=N)N)NC(=O)[C@@H](CCCNC(=N)N)NC(=O)[C@@H](CCCNC(=N)N)NC(=O)[C@@H](CCCNC(=N)N)NC(=O)[C@H](N)CS)C(N)=O [SEQ ID NO: 80, crrrrrr-NH2]	1.1	–	–
Ac-c(PEG2-C)arrrar-NH2 (XXXXXXX; D-residues) [SEQ ID NO: 57]	2.3	–	–
Ac-c(PEG2-C)rrrrrr-NH2 (XXXXXXX; D-residues) [SEQ ID NO: 59]	0.02	–	–
